Our source for the GI50 and TGI values is PubChem BioAssay (NCI).

Among the test systems are HT29 colon; SNB-75 CNS; HOP-62 NSCLC; HL-60(TB) leukemia; SR leukemia; K-562 leukemia; HCT-116 colon; SW-620 colon; SK-OV-3 ovarian; CCRF-CEM leukemia.
Holding throughout (assay): NCI anticancer screen, dose series, 48 h

Values joined by “and” are separate entries in the source; they are usually repeats but may differ in a detail not shown here. Identical values can stand only once.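 Cultured in 96-well plates, cells were exposed to test compound for 48 hours across five concentrations. Here, GI50 denotes the concentration required for 50% inhibition of growth. The concentration for full growth arrest is given as TGI.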

With `COc1ccc(-c2nsc3c2NC(=O)CC3c2cccc(F)c2)cc1` (stereo unspecified), the GI50 is 3.11 µM in the assay with HT29 colon; 4.78 µM in the assay with SNB-75 CNS; 8.79 µM with HOP-62 NSCLC; 4.21 µM with HL-60(TB) leukemia; 2.44 µM in the assay with SR leukemia; 2.65 µM with K-562 leukemia. The GI50 in the assay with HCT-116 colon was 4.14 µM; in the assay with SW-620 colon, 3.08 µM; in the assay on SK-OV-3 ovarian it was 5.28 µM; in the assay on CCRF-CEM leukemia, 4.89 µM. For the same molecule, the TGI with HT29 colon is greater than 100 µM; in the assay on SNB-75 CNS it was 86.2 µM; in the assay with HOP-62 NSCLC it was greater than 100 µM; with HL-60(TB) leukemia, greater than 100 µM; in the assay on SR leukemia, greater than 100 µM; in the assay on K-562 leukemia, greater than 100 µM. Further, the TGI in the assay on HCT-116 colon, in the assay with SW-620 colon, in the assay with SK-OV-3 ovarian and with CCRF-CEM leukemia was greater than 100 µM in each case.

Consider `O=C1/C=C/[C@@H](O)[C@@H]2C[C@@H](O)C[C@H]2/C=C/CCC[C@H](CCc2ccc(NC(=S)Nc3ccc4c(c3)C(=O)OC43c4ccc(O)cc4Oc4cc(O)ccc43)cc2)O1`, for which the GI50 was 0.365 µM with HT29 colon; 0.252 µM in the assay with SNB-75 CNS; 0.518 µM in the assay with HOP-62 NSCLC; 4.51 µM with HL-60(TB) leukemia; 0.517 µM in the assay on SR leukemia; 1.17 µM in the assay with K-562 leukemia. Besides, the GI50 in the assay on HCT-116 colon is 0.523 µM; with SW-620 colon, 0.337 µM; in the assay on SK-OV-3 ovarian it was 0.578 µM; with CCRF-CEM leukemia it was 0.426 µM. For the same molecule, the TGI was 3.61 µM in the assay with HT29 colon; greater than 100 µM with SNB-75 CNS; greater than 100 µM with HOP-62 NSCLC; greater than 100 µM in the assay with HL-60(TB) leukemia; greater than 100 µM with SR leukemia; greater than 100 µM in the assay on K-562 leukemia. In addition, the TGI is 4.95 µM in the assay with HCT-116 colon, greater than 100 µM in the assay on SK-OV-3 ovarian and greater than 100 µM in the assay on CCRF-CEM leukemia.

Consider `Cc1cnc(-c2ccc(-c3ccc(NC(=O)Nc4cccc(C(F)(F)F)c4)cc3F)c3c2C(=O)NC3)[nH]1`, for which the GI50 with HT29 colon is 0.853 µM; in the assay on SNB-75 CNS, 1.29 µM; in the assay on HOP-62 NSCLC it was 3.55 µM; with HL-60(TB) leukemia, 43.4 µM; in the assay on SR leukemia, 0.0862 µM; with K-562 leukemia it was 1.43 µM. In addition, the GI50 in the assay with HCT-116 colon was 0.548 µM; with SW-620 colon, 0.081 µM; in the assay on SK-OV-3 ovarian it was 6.97 µM; with CCRF-CEM leukemia, 1.31 µM. The TGI was greater than 44.7 µM with HT29 colon; 25.5 µM with SNB-75 CNS; greater than 50 µM with HOP-62 NSCLC; greater than 100 µM with HL-60(TB) leukemia; greater than 59.9 µM with SR leukemia; 31.9 µM with K-562 leukemia. Further, the TGI was 23.8 µM in the assay with HCT-116 colon, 17.4 µM in the assay with SW-620 colon, 39.7 µM with SK-OV-3 ovarian and 18.7 µM with CCRF-CEM leukemia.

On to `CC(C)c1ccc(C(O)(C(=O)O)c2ccc(C(C)C)cc2)cc1`, for which the TGI is greater than 100 µM in the assay on HT29 colon; greater than 100 µM in the assay with SNB-75 CNS; greater than 100 µM with HOP-62 NSCLC; 99.4 µM with HL-60(TB) leukemia; greater than 100 µM with SR leukemia; greater than 100 µM in the assay with K-562 leukemia. Moreover, the TGI in the assay with HCT-116 colon, in the assay on SW-620 colon, with SK-OV-3 ovarian and in the assay with CCRF-CEM leukemia was greater than 100 µM in each case.

With `CC1(C)C=C(N2CCN(C3=CC(C)(C)NC(C)(C)C3)CC2)CC(C)(C)N1`, the TGI in the assay with HT29 colon, in the assay with SNB-75 CNS, in the assay with HOP-62 NSCLC, with HL-60(TB) leukemia, in the assay with SR leukemia and in the assay with K-562 leukemia was greater than 100 µM throughout. Further, the TGI in the assay on HCT-116 colon, with SW-620 colon, in the assay with SK-OV-3 ovarian and with CCRF-CEM leukemia was greater than 100 µM throughout.

Consider `CC(=O)OCC1OC([S-])C(OC(C)=O)C(OC(C)=O)C1OC(C)=O.[Au+].c1ccc(CN2[CH-]N(Cc3ccccc3)C(c3ccccc3)=C2c2ccccc2)cc1`, for which the GI50 in the assay with HT29 colon was 3.38 µM and 1.02 µM; in the assay on SNB-75 CNS, 1.83 µM and 0.412 µM; with HOP-62 NSCLC it was 4.56 µM and 1.11 µM; in the assay with HL-60(TB) leukemia it was 2.57 µM and 0.573 µM; in the assay with SR leukemia, 2.7 µM and 0.364 µM; in the assay on K-562 leukemia, 2.59 µM and 0.397 µM. Further, the GI50 was 3.08 µM and 0.554 µM in the assay on HCT-116 colon; 2.02 µM and 0.779 µM in the assay with SW-620 colon; 2.65 µM and 0.283 µM in the assay on CCRF-CEM leukemia. The TGI in the assay with HT29 colon is 12.6 µM and 4.47 µM; in the assay with SNB-75 CNS, 7.21 µM and 4.4 µM; with HOP-62 NSCLC, 19.4 µM and 4.59 µM; in the assay on HL-60(TB) leukemia, 7.57 µM and 2.35 µM; in the assay with SR leukemia, 8.26 µM and 47.5 µM; with K-562 leukemia, 7.8 µM and 15.1 µM. Also, the TGI was 9.95 µM and 2.52 µM in the assay with HCT-116 colon; 4.61 µM and 2.08 µM in the assay on SW-620 colon; 26.3 µM and 5.17 µM in the assay on SK-OV-3 ovarian; 13.8 µM and 9.52 µM with CCRF-CEM leukemia.

`N#Cc1ccc(C(=O)c2cnn(-c3ccc(F)cc3)c2N)cc1`: the GI50 in the assay on HT29 colon, in the assay with SNB-75 CNS, in the assay with HOP-62 NSCLC, with HL-60(TB) leukemia, with SR leukemia and in the assay with K-562 leukemia was greater than 25 µM in each case. The GI50 in the assay on HCT-116 colon, in the assay with SW-620 colon, in the assay on SK-OV-3 ovarian and in the assay on CCRF-CEM leukemia was greater than 25 µM throughout. For the same molecule, the TGI with HT29 colon, with SNB-75 CNS, with HOP-62 NSCLC, in the assay with HL-60(TB) leukemia, in the assay with SR leukemia and in the assay on K-562 leukemia was greater than 25 µM throughout. Further, the TGI in the assay with HCT-116 colon, in the assay on SW-620 colon, in the assay on SK-OV-3 ovarian and in the assay with CCRF-CEM leukemia was greater than 25 µM in each case.

With `CC[C@H](C)[C@H](NC(=O)[C@H]1CCCCN1C)C(=O)N(C)[C@H](C[C@@H](OC(C)=O)c1nc(C(=O)NC23C4C5C2C2C3C4C52C(=O)OC)cs1)C(C)C` (stereo partly specified), the GI50 with HT29 colon is 0.00114 µM and 0.0025 µM; with SNB-75 CNS, 0.00125 µM and 0.0025 µM; with HOP-62 NSCLC, 0.00265 µM and 0.0025 µM; with HL-60(TB) leukemia, 0.000317 µM and < 0.0025 µM; in the assay on K-562 leukemia, 0.000952 µM and 0.0025 µM; with HCT-116 colon, 0.00355 µM and 0.0025 µM. The GI50 in the assay on SW-620 colon is 0.00149 µM and 0.0025 µM; in the assay on SK-OV-3 ovarian, 0.0102 µM and 0.0025 µM; in the assay on CCRF-CEM leukemia it was 0.0027 µM and 0.0025 µM. Besides, the TGI is 0.0612 µM and 0.0493 µM in the assay with HT29 colon; greater than 25 µM in the assay with SNB-75 CNS; greater than 25 µM in the assay with HOP-62 NSCLC; 0.00196 µM and < 0.0025 µM with HL-60(TB) leukemia; 5.98 µM in the assay on SR leukemia; greater than 25 µM with K-562 leukemia. The TGI with HCT-116 colon is 0.088 µM; in the assay with SW-620 colon it was greater than 25 µM; in the assay with SK-OV-3 ovarian, greater than 25 µM; with CCRF-CEM leukemia it was 3.33 µM.

Regarding `O=[N+]([O-])c1cc(C(F)(F)F)cc2n[se]nc12`, the TGI turned out to be 21.9 µM with HT29 colon; 19.8 µM in the assay with SNB-75 CNS; 29.8 µM in the assay with HOP-62 NSCLC; 4.02 µM in the assay with HL-60(TB) leukemia; 4.39 µM with SR leukemia; 5.14 µM with K-562 leukemia. The TGI in the assay on HCT-116 colon worked out at 3.46 µM; in the assay on SW-620 colon it was 3.11 µM; in the assay with SK-OV-3 ovarian, 27.5 µM; with CCRF-CEM leukemia it was 10.8 µM.

Turning to `O=C(CC1(O)C(=O)Nc2c(Cl)cc(Cl)cc21)c1ccc([N+](=O)[O-])cc1` (stereo unspecified), the TGI with HT29 colon is greater than 100 µM; with SNB-75 CNS, greater than 87.6 µM; with HOP-62 NSCLC, greater than 100 µM; in the assay with HL-60(TB) leukemia, greater than 52.5 µM; in the assay with SR leukemia it was greater than 80.6 µM; in the assay on K-562 leukemia, greater than 100 µM. For the same molecule, the TGI was greater than 59.2 µM in the assay with HCT-116 colon, greater than 63 µM in the assay with SW-620 colon, greater than 100 µM in the assay with SK-OV-3 ovarian and greater than 84.3 µM in the assay with CCRF-CEM leukemia.

On to `O=c1oc2ccc(I)cc2c(=O)n1-c1ccc(I)cc1F`, for which the GI50 in the assay on HT29 colon was 3.43 µM; in the assay on SNB-75 CNS it was 0.32 µM; in the assay with HOP-62 NSCLC, 2.36 µM; in the assay on HL-60(TB) leukemia it was 0.564 µM; in the assay with SR leukemia it was 0.61 µM; in the assay with K-562 leukemia, 0.436 µM. The GI50 was 0.472 µM in the assay on HCT-116 colon, 0.821 µM in the assay on SW-620 colon, 0.601 µM in the assay on SK-OV-3 ovarian and 1.89 µM with CCRF-CEM leukemia. In addition, the TGI is 15.3 µM in the assay with HT29 colon; 2.57 µM with SNB-75 CNS; 9.46 µM in the assay on HOP-62 NSCLC; greater than 38.2 µM in the assay on SR leukemia; greater than 100 µM in the assay with K-562 leukemia; 2.27 µM in the assay with HCT-116 colon. Moreover, the values for the TGI in the assay on SW-620 colon, with SK-OV-3 ovarian and in the assay on CCRF-CEM leukemia were 13.1 µM, 2.71 µM and 10.8 µM, respectively.

Regarding `CCc1nc(N)nc(N)c1-c1ccc(N(C)Cc2ccccc2)c([N+](=O)[O-])c1`, the TGI stood at 14.6 µM in the assay with HT29 colon; 19.5 µM with SNB-75 CNS; 14.3 µM in the assay with HOP-62 NSCLC; 5.88 µM in the assay on HL-60(TB) leukemia; 4.16 µM with SR leukemia; 3.98 µM in the assay on K-562 leukemia. The TGI in the assay with HCT-116 colon worked out at 10 µM; in the assay on SW-620 colon it was 26.5 µM; in the assay with SK-OV-3 ovarian, 33.6 µM; in the assay with CCRF-CEM leukemia it was 12.7 µM.

For the molecule `CC[C@H](C)C(=O)O[C@H]1CCC=C2C=C[C@H](C)[C@H](CC[C@@H]3C[C@@H](O)CC(=O)O3)[C@H]21`, the GI50 with HT29 colon is 28 µM; in the assay on SNB-75 CNS, 1.37 µM; in the assay with HOP-62 NSCLC it was 12.4 µM; in the assay with HL-60(TB) leukemia, 17.1 µM; in the assay with SR leukemia it was 3.79 µM; in the assay on K-562 leukemia, 22 µM. Besides, the GI50 was 2.84 µM in the assay with HCT-116 colon, 11.8 µM with SW-620 colon, 5.96 µM in the assay on SK-OV-3 ovarian and 34.1 µM in the assay with CCRF-CEM leukemia. Besides, the TGI was greater than 100 µM with HT29 colon; 4.68 µM in the assay on SNB-75 CNS; greater than 100 µM in the assay on HOP-62 NSCLC; 76.5 µM in the assay on HL-60(TB) leukemia; greater than 59.4 µM in the assay with SR leukemia; greater than 100 µM in the assay with K-562 leukemia. Further, the TGI in the assay on HCT-116 colon was greater than 59 µM; with SW-620 colon it was greater than 100 µM; with SK-OV-3 ovarian, greater than 100 µM; in the assay with CCRF-CEM leukemia it was greater than 100 µM.
